Tests used:
Experiment in all cases: relative viability (nuclei count vs DMSO), 5 days (fraction); higher = more cells survive
FG-4592 + Crizotinib = compound: Cc1nc(C(=O)NCC(=O)O)c(O)c2ccc(Oc3ccccc3)cc12 [FG-4592] + C[C@@H](Oc1cc(-c2cnn(C3CCNCC3)c2)cnc1N)c1c(Cl)ccc(F)c1Cl [Crizotinib] (partner 1 µM)
Method in brief: (§1)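 Dosing by pin tool came one day after lung cancer cell lines were seeded in 1536-well plates, using either one drug or a fixed anchor-drug dose plus five library-drug doses (not always all listed) in √10 steps. After 5 days, nuclei were counted on 4× images. Relative viability is treated-well nuclei count divided by vehicle-well nuclei count, and values are medians of duplicate plates.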

FG-4592 + OSI-027 = compound: Cc1nc(C(=O)NCC(=O)O)c(O)c2ccc(Oc3ccccc3)cc12 [FG-4592] + COc1cccc2cc(-c3nc([C@H]4CC[C@H](C(=O)O)CC4)n4ncnc(N)c34)[nH]c12 [OSI-027] (partner 0.5 µM)
Method in brief: as §1

FG-4592 + Trametinib = compound: Cc1nc(C(=O)NCC(=O)O)c(O)c2ccc(Oc3ccccc3)cc12 [FG-4592] + CC(=O)Nc1cccc(-n2c(=O)n(C3CC3)c(=O)c3c(Nc4ccc(I)cc4F)n(C)c(=O)c(C)c32)c1 [Trametinib] (partner 0.02 µM)
Method in brief: as §1

IU1-47 + Olaparib = compound: CC1=CC(=C(N1C2=CC=C(C=C2)Cl)C)C(=O)CN3CCCCC3 [IU1-47] + O=C(c1cc(Cc2n[nH]c(=O)c3ccccc23)ccc1F)N1CCN(C(=O)C2CC2)CC1 [Olaparib] (partner 8 µM)
Method in brief: as §1

Cell Line | relative viability (FG-4592 + Crizotinib; first compound 0.253 µM) | relative viability (FG-4592 + Crizotinib; first compound 2.53 µM) | relative viability (FG-4592 + Crizotinib; first compound 8 µM) | relative viability (FG-4592 + OSI-027; first compound 0.08 µM) | relative viability (FG-4592 + OSI-027; first compound 0.253 µM) | relative viability (FG-4592 + OSI-027; first compound 0.8 µM) | relative viability (FG-4592 + OSI-027; first compound 2.53 µM) | relative viability (FG-4592 + OSI-027; first compound 8 µM) | relative viability (FG-4592 + Trametinib; first compound 0.08 µM) | relative viability (FG-4592 + Trametinib; first compound 0.253 µM) | relative viability (FG-4592 + Trametinib; first compound 0.8 µM) | relative viability (FG-4592 + Trametinib; first compound 2.53 µM) | relative viability (FG-4592 + Trametinib; first compound 8 µM) | relative viability (IU1-47 + Olaparib; first compound 0.08 µM) | relative viability (IU1-47 + Olaparib; first compound 0.253 µM) | relative viability (IU1-47 + Olaparib; first compound 0.8 µM) | relative viability (IU1-47 + Olaparib; first compound 2.53 µM) | relative viability (IU1-47 + Olaparib; first compound 8 µM) | relative viability (FG-4592 + Crizotinib; first compound 0.08 µM) | relative viability (FG-4592 + Crizotinib; first compound 0.8 µM)
LK-2 | 0.23 | 0.279 | 0.216 | 0.185 | 0.19 | 0.223 | 0.185 | 0.174 | 0.599 | 0.661 | 0.628 | 0.621 | 0.516 | 0.935 | 0.958 | 0.802 | 0.745 | 0.641 | – | –
NCI-H2126 | 1.01 | 1 | 1.03 | 0.806 | 0.627 | 0.663 | 0.623 | 0.67 | 0.586 | 0.576 | 0.455 | 0.534 | 0.476 | 0.972 | 0.945 | 0.89 | 0.898 | 0.762 | 0.989 | 1.04
NCI-H3122 | 0.271 | 0.3 | 0.255 | 1 | 0.899 | 0.889 | 0.768 | 0.563 | 0.19 | 0.244 | 0.196 | 0.264 | 0.119 | 0.644 | 0.665 | 0.692 | 0.692 | 0.696 | 0.277 | 0.26
NCI-H1975 | 0.892 | 0.991 | 0.897 | 0.693 | 0.605 | 0.75 | 0.652 | 0.614 | 0.33 | 0.292 | 0.337 | 0.24 | 0.184 | 0.858 | 0.773 | 0.748 | 1.02 | 0.78 | 0.921 | 1.11
NCI-H1944 | 1.1 | 1.17 | 1.05 | 0.401 | 0.367 | 0.412 | 0.325 | 0.364 | 0.426 | 0.409 | 0.464 | 0.422 | 0.371 | 0.433 | 0.409 | 0.398 | 0.356 | 0.427 | 1.05 | 1.13
LU99A | 0.523 | 0.558 | 0.58 | 0.332 | 0.276 | 0.296 | 0.267 | 0.27 | 0.548 | 0.467 | – | 0.503 | 0.523 | 0.233 | 0.273 | 0.272 | 0.265 | 0.245 | 0.534 | 0.543
SW 1573 | 0.7 | 1 | 0.632 | 0.556 | 0.537 | 0.63 | 0.536 | 0.561 | 0.611 | 0.62 | 0.616 | 0.531 | 0.391 | 0.592 | 0.462 | 0.445 | 0.453 | 0.501 | 0.664 | 0.71
NCI-H2347 | – | 0.724 | 0.874 | 0.235 | – | 0.491 | 0.3 | 0.46 | 0.315 | 0.323 | 0.267 | 0.326 | 0.28 | 0.652 | 0.607 | 0.628 | 0.562 | 0.603 | 0.668 | 0.58
NCI-H2009 | 0.967 | 0.953 | 0.98 | 0.591 | 0.565 | 0.621 | 0.476 | 0.605 | 0.32 | 0.181 | 0.262 | 0.31 | 0.162 | 0.662 | 0.678 | 0.612 | 0.804 | 0.65 | 1.14 | 1.01
HCC-15 | 0.712 | 0.866 | 0.875 | 0.626 | 0.626 | 0.674 | 0.614 | 0.701 | 0.41 | 0.359 | 0.352 | 0.395 | 0.412 | 0.75 | 0.722 | 0.767 | 0.711 | 0.662 | 0.819 | 0.808
NCI-H1299 | 0.903 | 0.93 | 0.989 | – | – | – | – | – | – | – | – | – | – | 0.982 | 1.03 | 0.958 | 0.923 | 0.959 | 0.953 | 0.976
ABC-1 | – | 1.18 | 1.13 | 0.548 | 0.482 | 0.47 | 0.501 | 0.4 | – | – | – | – | – | 1.14 | 1.05 | 0.816 | – | 0.907 | 1.28 | 1.64
NCI-H1793 | – | – | – | 0.223 | 0.229 | – | 0.178 | 0.254 | – | 0.453 | – | 0.434 | 0.4 | 0.861 | – | 1.1 | 1.01 | 0.87 | – | –
NCI-H1648 | – | – | – | 0.275 | 0.285 | 0.302 | 0.258 | 0.28 | 0.485 | 0.445 | – | 0.456 | 0.493 | 1.16 | 1.17 | 0.813 | 0.656 | 0.577 | – | –
NCI-H1563 | 0.888 | 0.889 | 0.804 | 0.78 | 0.785 | 0.718 | 0.701 | 0.606 | – | – | – | – | – | – | – | – | – | – | 0.893 | 0.91
A549 | 0.736 | 0.831 | 0.826 | – | – | – | – | – | – | – | – | – | – | 0.467 | 0.28 | 0.324 | – | 0.371 | 0.631 | 0.87
NCI-H522 | – | – | – | 0.739 | 0.738 | 0.727 | 0.594 | 0.574 | 0.798 | 0.712 | – | 0.676 | 0.873 | 0.724 | 0.715 | 0.525 | 0.665 | 0.668 | – | –
NCI-H1623 | – | – | – | 0.447 | 0.447 | 0.468 | 0.416 | 0.419 | – | – | – | – | – | – | – | – | – | – | – | –
SW 900 | – | – | – | 0.424 | 0.546 | 0.493 | 0.491 | 0.534 | – | 0.819 | – | 0.871 | 0.619 | 0.859 | – | 1.19 | 1.11 | 0.976 | – | –
NCI-H1395 | – | – | – | 0.593 | 0.644 | 0.56 | 0.612 | 0.549 | 0.961 | 1.01 | 0.936 | 1.03 | 0.773 | 0.46 | 0.432 | 0.44 | 0.452 | 0.412 | – | –
IA-LM | 0.824 | 0.644 | 0.76 | – | – | – | – | – | – | – | – | – | – | 0.748 | 0.863 | 0.958 | 0.979 | 0.903 | 0.766 | 0.805
EBC-1 | 0.186 | 0.19 | 0.222 | – | – | – | – | – | – | – | – | – | – | 0.685 | 0.691 | 0.696 | 0.663 | 0.766 | 0.189 | 0.178

From the supplement of paper PMC10307832
